Results taken from patent US20080031868A1, “HUMAN LYSOZYME MEDICINE, ITS MANUFACTURING METHOD AND APPLICATION THEREOF” (priority 2005, published 2008).
Values after ≈ are worked out from the molar mass of the structure shown.

Legend:
[1] = tested on: Staphylococcus aureus MRSABAA-42; experiment: Bronchus pneumonia mice infected by Staphylococcus aureus MRSA BAA-42, treated by atomization inspiring; format: in vivo; conditions: for accumulative survival number: 30 mice; for accumulative survival number / survival rate (%): 14 days; for survival elevation rate (%): versus infected model group; for bacterial number: mice lung
[2] = tested on: Staphylococcus aureus MRSABAA-42; experiment: as above; format: in vivo; conditions: mice lung; atomization inspired 6.0; the 1th day
From the text: A, atomization sucks gene recombinant Human Lysozyme (HLZ) cured bronchus pneumonia mice infected by Staphylococcus aureus MRSABAA-42
Choose the test lawn, after washing with the physiological saline, correcting by McB tubes for comparative tests bacterium solution concentration 2#MCF, turbidity of 2.7×10^11 CFU/ml, diluted with physiological saline separately into 10^−1, 10^−2, 10^−3 bacterium solution, drip the nose to infect for mice respectively (anaesthetize the mice with the pentobarbital first, 30 mg/kg, ip.), 0.05 ml a mouse. Observed the mice body changing, and killed parts of mice after infecting 48 h, fetch the whole lung to tissue homogenate, 10 times diluted by physiological saline, draw 0.1 m1 to MH agar plate surface, to cultivate last night 35° C., Gram staining, test under microscope, and count plate. At the same time recorded the number of death mice, and collect some mice tracheas, bronchus, lung tissue and do pathology tissue observing.
It is called medial lethal dose (LD50) that bacterium amount caused mice appearing lung pharmacology change and 50% died. LD50was used as experimental treatment amount.
Infected mice is divided into 10 groups at random according to the weight, 30 every groups.
Designed dosage: The concentration of recombinant human lysozyme medicine was 15000 u/ml as in clinical atomization therapy. Its dose was 15000 u per time and administrated one time everyday, I.e 0.5 mg per time everyday. The dose was 1.3×10-3 mg a mice (counted by weight of 20 g). […] To ensure the breathing amount of lysozyme, the breathing time were extended for 0.5 hour. Based on 0.5 mg/ml, the concentration of 0.25 mg/ml, 1.0 mg/ml and 2.0 mg/ml were set respectively as treatment dose.
The same group mice were put into the ultrasonic atomizer and then treated with human lysozyme atomized in the compression sprayer (PARL.BOY), twice a day, 5 days in succession.
Every group, from the infected day to calculae, the animal incidence and death were recorded 14 days in succession. Every group collected 2-3 mice and killed them the 14th day after infecting, did bacteriology detection after lung homogenate, killed surplus animal to fetch the trachea, bronchus, fixed in 10% of the formaldehyde solution after weighing, did pathology check.
The bacterial culture: A part of mice were killed after infecting 24 h, fetched the whole lung weighting, added 2 ml degerming PBS solution 10 times diluted, draw 0.1 mL to MH agar plate surface, to cultivate last night 35° C., counted in the cultivation plateform of 30-300 CF, if the two close level tissue fluid is 30-300 CFU, counted the low density (make 3 plateforms at the same time each tissue fluid, calculate the average). Collected 2 mice to do bacterial culture in every group at random in 5, 7, 14 days after administration.
Pathology detection: After dissecting the mice, observed the trachea, bronchus, syncretio of lung, chest wall and membrana pleuralis, the volume of lung and size of lung focus, the lung surface was congested, hydroncus, consolidation and atelectasis by the naked eye. Took out the trachea, bronchus and the whole lung tissue to fixed with 10% of the formaldehyde solution, draw materials.

[3] = 0.75 mg/ml atomization inspired

CC[C@H]1OC(=O)[C@H](C)[C@@H](O[C@H]2C[C@@](C)(OC)[C@@H](O)[C@H](C)O2)[C@H](C)[C@@H](O[C@@H]2O[C@H](C)C[C@H](N(C)C)[C@H]2O)[C@](C)(OC)C[C@@H](C)C(=O)[C@H](C)[C@@H](O)[C@]1(C)O [Clarithromycin, reference compound]
average survival day (day, x ± s) [1, 3]: 7.67 ± 4.01 days | accumulative survival number [1, 3]: 5 | survival rate (%) [1, 3]: 16.7% | Death number(piece) ([1]; 0.75 mg/ml atomization inspired, day 1): 0 piece | Death number(piece) ([1]; 0.75 mg/ml atomization inspired, day 2): 0 piece | Death number(piece) ([1]; 0.75 mg/ml atomization inspired, day 3): 4 piece | Death number(piece) ([1]; 0.75 mg/ml atomization inspired, day 4): 4 piece | Death number(piece) ([1]; 0.75 mg/ml atomization inspired, day 5): 3 piece | Death number(piece) ([1]; 0.75 mg/ml atomization inspired, day 6): 4 piece | Death number(piece) ([1]; 0.75 mg/ml atomization inspired, day 7): 4 piece | Death number(piece) ([1]; 0.75 mg/ml atomization inspired, day 8): 2 piece | Death number(piece) ([1]; 0.75 mg/ml atomization inspired, day 9): 3 piece | Death number(piece) ([1]; 0.75 mg/ml atomization inspired, day 10): 1 piece | Death number(piece) ([1]; 0.75 mg/ml atomization inspired, day 11): 0 piece | Death number(piece) ([1]; 0.75 mg/ml atomization inspired, day 12): 0 piece | Death number(piece) ([1]; 0.75 mg/ml atomization inspired, day 13): 0 piece | Death number(piece) ([1]; 0.75 mg/ml atomization inspired, day 14): 0 piece | survival elevation rate (%) [1, 3]: 0.00% | average survival day (day, x ± s) ([1]; 1.5 mg/ml atomization inspired): 8.70 ± 4.65 days | accumulative survival number ([1]; 1.5 mg/ml atomization inspired): 12 | survival rate (%) ([1]; 1.5 mg/ml atomization inspired): 40.0% | Death number(piece) ([1]; 1.5 mg/ml atomization inspired, day 1): 0 piece | Death number(piece) ([1]; 1.5 mg/ml atomization inspired, day 2): 0 piece | Death number(piece) ([1]; 1.5 mg/ml atomization inspired, day 3): 4 piece | Death number(piece) ([1]; 1.5 mg/ml atomization inspired, day 4): 4 piece | Death number(piece) ([1]; 1.5 mg/ml atomization inspired, day 5): 3 piece | Death number(piece) ([1]; 1.5 mg/ml atomization inspired, day 6): 4 piece | Death number(piece) ([1]; 1.5 mg/ml atomization inspired, day 7): 0 piece | Death number(piece) ([1]; 1.5 mg/ml atomization inspired, day 8): 2 piece | Death number(piece) ([1]; 1.5 mg/ml atomization inspired, day 9): 0 piece | Death number(piece) ([1]; 1.5 mg/ml atomization inspired, day 10): 1 piece | Death number(piece) ([1]; 1.5 mg/ml atomization inspired, day 11): 0 piece | Death number(piece) ([1]; 1.5 mg/ml atomization inspired, day 12): 0 piece | Death number(piece) ([1]; 1.5 mg/ml atomization inspired, day 13): 0 piece | Death number(piece) ([1]; 1.5 mg/ml atomization inspired, day 14): 0 piece | survival elevation rate (%) ([1]; 1.5 mg/ml atomization inspired): 23.3% | average survival day (day, x ± s) ([1]; 3 mg/ml atomization inspired): 11.20 ± 3.53 days | accumulative survival number ([1]; 3 mg/ml atomization inspired): 18 | survival rate (%) ([1]; 3 mg/ml atomization inspired): 60.0% | Death number(piece) ([1]; 3 mg/ml atomization inspired, day 1): 0 piece | Death number(piece) ([1]; 3 mg/ml atomization inspired, day 2): 0 piece | Death number(piece) ([1]; 3 mg/ml atomization inspired, day 3): 0 piece | Death number(piece) ([1]; 3 mg/ml atomization inspired, day 4): 0 piece | Death number(piece) ([1]; 3 mg/ml atomization inspired, day 5): 0 piece | Death number(piece) ([1]; 3 mg/ml atomization inspired, day 6): 4 piece | Death number(piece) ([1]; 3 mg/ml atomization inspired, day 7): 4 piece | Death number(piece) ([1]; 3 mg/ml atomization inspired, day 8): 4 piece | Death number(piece) ([1]; 3 mg/ml atomization inspired, day 9): 0 piece | Death number(piece) ([1]; 3 mg/ml atomization inspired, day 10): 0 piece | Death number(piece) ([1]; 3 mg/ml atomization inspired, day 11): 0 piece | Death number(piece) ([1]; 3 mg/ml atomization inspired, day 12): 0 piece | Death number(piece) ([1]; 3 mg/ml atomization inspired, day 13): 0 piece | Death number(piece) ([1]; 3 mg/ml atomization inspired, day 14): 0 piece | survival elevation rate (%) ([1]; 3 mg/ml atomization inspired): 43.3% | average survival day (day, x ± s) ([1]; 6 mg/ml atomization inspired): 11.60 ± 3.48 days | accumulative survival number ([1]; 6 mg/ml atomization inspired): 20 | survival rate (%) ([1]; 6 mg/ml atomization inspired): 66.7% | Death number(piece) ([1]; 6 mg/ml atomization inspired, day 1): 0 piece | Death number(piece) ([1]; 6 mg/ml atomization inspired, day 2): 0 piece | Death number(piece) ([1]; 6 mg/ml atomization inspired, day 3): 0 piece | Death number(piece) ([1]; 6 mg/ml atomization inspired, day 4): 0 piece | Death number(piece) ([1]; 6 mg/ml atomization inspired, day 5): 0 piece | Death number(piece) ([1]; 6 mg/ml atomization inspired, day 6): 4 piece | Death number(piece) ([1]; 6 mg/ml atomization inspired, day 7): 4 piece | Death number(piece) ([1]; 6 mg/ml atomization inspired, day 8): 2 piece | Death number(piece) ([1]; 6 mg/ml atomization inspired, day 9): 0 piece | Death number(piece) ([1]; 6 mg/ml atomization inspired, day 10): 0 piece | Death number(piece) ([1]; 6 mg/ml atomization inspired, day 11): 0 piece | Death number(piece) ([1]; 6 mg/ml atomization inspired, day 12): 0 piece | Death number(piece) ([1]; 6 mg/ml atomization inspired, day 13): 0 piece | Death number(piece) ([1]; 6 mg/ml atomization inspired, day 14): 0 piece | survival elevation rate (%) ([1]; 6 mg/ml atomization inspired): 50.0% | The 4th day (bacterial number, head incomplete) ([1]; dose 1.5): 3.4 ± 0.25 | The 5th day (bacterial number, head incomplete) ([1]; dose 1.5, the 5th day): 64.40 ± 15.69 | The 4th day (bacterial number, head incomplete) ([1]; dose 3): 2.5 ± 0.22 | The 5th day (bacterial number, head incomplete) ([1]; dose 3, the 5th day): 60.70 ± 13.98 | The 4th day (bacterial number, head incomplete) ([1]; dose 6): 2.2 ± 0.12 | The 5th day (bacterial number, head incomplete) ([1]; dose 6, the 5th day): 57.60 ± 15.37 | bacterial number ([1]; atomization inspired 1.5, 0 day): 350 ± 21.5 CFU/mL | bacterial number ([1]; atomization inspired 1.5, the 1th day): 247.10 ± 21.31 CFU/mL | bacterial number ([1]; atomization inspired 1.5, the 3rd day): 146.90 ± 13.55 CFU/mL | bacterial number ([1]; atomization inspired 1.5, the 5th day): 64.40 ± 15.69 CFU/mL | bacterial number ([1]; atomization inspired 1.5, the 14th day): 28.0 ± 2.60 CFU/mL | bacterial number ([1]; atomization inspired 3.0, 0 day): 350 ± 21.5 CFU/mL | bacterial number ([1]; atomization inspired 3.0, the 1th day): 246.30 ± 19.03 CFU/mL | bacterial number ([1]; atomization inspired 3.0, the 3rd day): 141.10 ± 18.54 CFU/mL | bacterial number ([1]; atomization inspired 3.0, the 5th day): 60.70 ± 13.98 CFU/mL | bacterial number ([1]; atomization inspired 3.0, the 14th day): 24.0 ± 2.00 CFU/mL | bacterial number ([1]; atomization inspired 6.0, 0 day): 350 ± 21.5 CFU/mL | bacterial number ([1]; atomization inspired 6.0, the 3rd day): 134.60 ± 13.58 CFU/mL | bacterial number ([1]; atomization inspired 6.0, the 5th day): 57.60 ± 15.37 CFU/mL | bacterial number ([1]; atomization inspired 6.0, the 14th day): 10.0 ± 8.00 CFU/mL | 95% feasible limits of ED50 ([1]; mice survival over 14 days, Bliss method): 1760 to 4020 µg/mL | ED50 (median effective dose) ([1]; mice survival over 14 days, Bliss method, atomization inspired): 2550 µg/mL (≈ 3.41 mM) | bacterial number [2]: 241.9 ± 16.62 CFU/mL
